Data published in ChEMBL document CHEMBL3414566, “Synthesis, docking and ADMET studies of novel chalcone triazoles for anti-cancer and anti-diabetic activity” (Eur J Med Chem, 2015).

Tests used:
DU-145 = test: Anticancer activity against human DU145 cells by MTT assay; format: functional, cell-based
MCF7 = test: Anticancer activity against human MCF7 cells by MTT assay; format: functional, cell-based
[1] = Anticancer activity against human IMR32 cells by MTT assay; format: functional, cell-based, IMR-32
A549 = test: Anticancer activity against human A549 cells by MTT assay; format: functional, cell-based
HepG2 = test: Anticancer activity against human HepG2 cells by MTT assay; format: functional, cell-based
[2] = Inhibition of rat intestinal alpha-glucosidase using nitrophenyl-alpha-D-glucopyranoside by spectrophotometrically
[3] = Homo sapiens, HepG2, read-out: IC50
[4] = Homo sapiens, A549, read-out: IC50
[5] = Homo sapiens, DU-145, read-out: IC50
[6] = Homo sapiens, IMR-32, read-out: IC50
[7] = Homo sapiens, MCF7, read-out: IC50

Row | SMILES | IC50 (DU-145; du-145) | IC50 (MCF7; mcf7) | IC50 (A549; a549) | IC50 (HepG2; hepg2) | IC50 ([2]; read-out: IC50) | IC50 (HepG2; [3]) | IC50 [2] | IC50 (A549; [4]) | IC50 (DU-145; [5]) | IC50 (MCF7; [7]) | IC50 ([1]; imr-32) | IC50 [1, 6]
1 | C[C@H]1O[C@H](O[C@H]2[C@H](O)[C@@H](O)[C@@H](O[C@H]3[C@H](O)[C@@H](O)C(O)O[C@@H]3CO)O[C@@H]2CO)[C@H](O)[C@@H](O)[C@@H]1N[C@H]1C=C(CO)[C@@H](O)[C@H](O)[C@H]1O (stereo partly specified) [ACARBOSE] | Not Active | Not Active | Not Active | Not Active | 23.9 µM |  |  |  |  |  | Not Active | 
2 | CCc1ccccc1-n1cc(COc2ccc(/C=C/C(=O)c3cc4c(cc3O)OC(C)(C)CC4)cc2)nn1 | Not Active | Not Active |  |  |  | 115 µM | Not Active | 137 µM |  |  | Not Active | 
3 | COc1cccc2c1C(=O)c1c(O)c3c(c(O)c1C2=O)C[C@@](O)(C(=O)CO)C[C@@H]3O[C@H]1C[C@H](N)[C@H](O)[C@H](C)O1 [DOXORUBICIN] |  |  |  |  |  | 1.05 µM | Not Active | 69.3 µM | 17.7 µM |  |  | 44.4 µM
4 | Cc1c(-n2cc(COc3ccc(/C=C/C(=O)c4ccc5c(c4O)CCC(C)(C)O5)cc3)nn2)cccc1[N+](=O)[O-] | Not Active |  | Not Active |  |  | 115 µM | Not Active |  |  | 145 µM |  | 73.5 µM
5 | CC1(C)CCc2cc(C(=O)/C=C/c3ccc(OCc4cn(-c5ccc(Br)cc5)nn4)cc3)c(O)cc2O1 | Not Active | Not Active |  | Not Active |  |  | Not Active | 80 µM |  |  |  | 69.4 µM
6 | COc1ccc(-n2cc(COc3ccc(/C=C/C(=O)c4cc5c(cc4O)OC(C)(C)CC5)cc3)nn2)c([N+](=O)[O-])c1 | Not Active | Not Active |  | Not Active |  |  | Not Active | 99.5 µM |  |  | Not Active | 
7 | CC1(C)CCc2cc(C(=O)/C=C/c3ccc(OCc4cn(-c5ccc(Cl)cc5)nn4)cc3)c(O)cc2O1 | Not Active | Not Active |  | Not Active |  |  | Not Active | 75.5 µM |  |  |  | 92.1 µM
8 | CC(=O)c1ccc(-n2cc(COc3ccc(/C=C/C(=O)c4cc5c(cc4O)OC(C)(C)CC5)cc3)nn2)cc1 | Not Active |  |  | Not Active |  |  | Not Active | 66.3 µM |  | 182 µM | Not Active | 
9 | Cc1c(-n2cc(COc3ccc(/C=C/C(=O)c4cc5c(cc4O)OC(C)(C)CC5)cc3)nn2)cccc1[N+](=O)[O-] | Not Active |  |  |  |  | 109 µM | Not Active | 65.9 µM |  | 176 µM | Not Active | 
10 | COc1ccc(-n2cc(COc3ccc(/C=C/C(=O)c4ccc5c(c4O)CCC(C)(C)O5)cc3)nn2)c([N+](=O)[O-])c1 | Not Active |  | Not Active |  |  | 120 µM | Not Active |  |  | 73.1 µM |  | 132 µM
11 | CC1(C)CCc2cc(C(=O)/C=C/c3ccc(OCc4cn(Cc5ccc([N+](=O)[O-])cc5)nn4)cc3)c(O)cc2O1 | Not Active | Not Active |  |  |  | 109 µM | Not Active | 35.8 µM |  |  |  | 108 µM
12 | Cc1ccc(-n2cc(COc3ccc(/C=C/C(=O)c4cc5c(cc4O)OC(C)(C)CC5)cc3)nn2)cc1Br | Not Active | Not Active |  |  |  | 117 µM | Not Active | 125 µM |  |  | Not Active | 
13 | CC(=O)c1ccc(-n2cc(COc3ccc(/C=C/C(=O)c4ccc5c(c4O)CCC(C)(C)O5)cc3)nn2)cc1 | Not Active |  |  |  |  | 91.4 µM | Not Active | 149 µM |  | 171 µM |  | 89.5 µM
14 | CC1(C)CCc2c(ccc(C(=O)/C=C/c3ccc(OCc4cn(-c5ccc(Cl)cc5)nn4)cc3)c2O)O1 | Not Active | Not Active | Not Active |  | 128 µM | 102 µM |  |  |  |  | Not Active | 
15 | CC1(C)CCc2c(ccc(C(=O)/C=C/c3ccc(OCc4cn(-c5ccc(Br)cc5)nn4)cc3)c2O)O1 | Not Active | Not Active |  |  |  | 136 µM | Not Active | 129 µM |  |  |  | 117 µM

Continued, in another order:

Row | IC50 (DU-145; du-145) | IC50 (MCF7; mcf7) | IC50 (A549; a549) | IC50 (HepG2; hepg2) | IC50 ([2]; read-out: IC50) | IC50 (HepG2; [3]) | IC50 [2] | IC50 (A549; [4]) | IC50 (DU-145; [5]) | IC50 (MCF7; [7]) | SMILES | IC50 ([1]; imr-32) | IC50 [1, 6]
16 | Not Active | Not Active | Not Active |  |  | 74.1 µM | Not Active |  |  |  | CCCCCCCCn1cc(COc2ccc(/C=C/C(=O)c3ccc4c(c3O)CCC(C)(C)O4)cc2)nn1 | Not Active | 
17 | Not Active | Not Active | Not Active |  |  | 110 µM | Not Active |  |  |  | Cc1ccc(-n2cc(COc3ccc(/C=C/C(=O)c4ccc5c(c4O)CCC(C)(C)O5)cc3)nn2)cc1Br | Not Active | 
18 | Not Active | Not Active |  |  | 67.8 µM | 67.8 µM |  | 112 µM |  |  | CCc1ccccc1-n1cc(COc2ccc(/C=C/C(=O)c3ccc4c(c3O)CCC(C)(C)O4)cc2)nn1 | Not Active | 
19 | Not Active |  |  |  | 102 µM | 9.82 µM |  | 48.6 µM |  | 191 µM | CCCCCn1cc(COc2ccc(/C=C/C(=O)c3ccc4c(c3O)CCC(C)(C)O4)cc2)nn1 | Not Active | 
20 | Not Active | Not Active |  |  |  | 127 µM | Not Active | 50.8 µM |  |  | CCCCCCCCn1cc(COc2ccc(/C=C/C(=O)c3cc4c(cc3O)OC(C)(C)CC4)cc2)nn1 |  | 7.09 µM
21 | Not Active | Not Active |  |  | 74.9 µM | 95.8 µM |  | 91.3 µM |  |  | CCCCCn1cc(COc2ccc(/C=C/C(=O)c3cc4c(cc3O)OC(C)(C)CC4)cc2)nn1 | Not Active | 
22 |  |  |  |  |  | 69.9 µM | Not Active | 69.9 µM | 29.9 µM | 17.1 µM | CC1(C)CCc2c(ccc(C(=O)/C=C/c3ccc(OCc4cn(Cc5ccc([N+](=O)[O-])cc5)nn4)cc3)c2O)O1 |  | 17.3 µM
